Measurements from ChEMBL document CHEMBL3997816, “Discovery and characterization of [(cyclopentyl)ethyl]benzoic acid inhibitors of microsomal prostaglandin E synthase-1” (Bioorg Med Chem Lett, 2017).

Tests used:
[1] = Clearance in rat at 1 mg/kg, iv; format: ADME, organism-based; settings: in vivo
[2] = molecular target: CYP2C9 (Homo sapiens, UniProt P11712); assay: Inhibition of CYP2C9 (unknown origin) in microsomes at 10 uM relative to control; format: ADME
[3] = molecular target: T1, Prostaglandin E synthase (Homo sapiens) (UniProt O14684); assay: (§1) Inhibition of mPGES1 in human whole blood assessed as reduction in LPS-induced PGE2 production preincubated for 30 mins followed by LPS addition measured after 20 to 24 hrs by LC-MS analysis
T1 sequence (whole entry): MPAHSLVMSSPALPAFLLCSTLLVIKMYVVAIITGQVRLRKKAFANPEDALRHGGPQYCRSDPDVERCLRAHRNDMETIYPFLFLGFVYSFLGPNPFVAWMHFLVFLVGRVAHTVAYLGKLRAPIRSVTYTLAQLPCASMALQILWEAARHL

[4] = molecular target: T2, Prostaglandin E synthase (Homo sapiens, UniProt O14684); assay: as §1
T2 sequence (O14684 whole entry): T1 sequence (whole entry)

[5] = molecular target: T2, Prostaglandin E synthase; assay: Inhibition of human mPGES1 expressed in HEK293 microsomes assessed as reduction in PGE2 production using PGH2 as substrate after 2.5 mins by LC-MS analysis
[6] = molecular target: T2, Prostaglandin E synthase; assay: Inhibition of mPGES1 in human A549 cells assessed as reduction in IL-1beta-induced PGE2 production preincubated for 30 mins followed by IL-1beta addition measured after 18 hrs by enzyme immunoassay; format: cell-based
[7] = molecular target: T3, Prostaglandin G/H synthase 1 (Homo sapiens, UniProt P23219); assay: Inhibition of COX1 in human whole blood assessed as effect on LPS-induced PGF2alpha level preincubated for 30 mins followed by LPS addition measured after 20 to 24 hrs by LC-MS analysis
[8] = molecular target: T4, Prostaglandin G/H synthase 2 (Homo sapiens, UniProt P35354); assay: Inhibition of COX2 in human A549 cells assessed as reduction in IL-1beta-induced PGI2 production preincubated for 30 mins followed by IL-1beta addition measured after 18 hrs by enzyme immunoassay; format: cell-based; settings: a549, 18 h
T4 sequence (P35354 whole entry): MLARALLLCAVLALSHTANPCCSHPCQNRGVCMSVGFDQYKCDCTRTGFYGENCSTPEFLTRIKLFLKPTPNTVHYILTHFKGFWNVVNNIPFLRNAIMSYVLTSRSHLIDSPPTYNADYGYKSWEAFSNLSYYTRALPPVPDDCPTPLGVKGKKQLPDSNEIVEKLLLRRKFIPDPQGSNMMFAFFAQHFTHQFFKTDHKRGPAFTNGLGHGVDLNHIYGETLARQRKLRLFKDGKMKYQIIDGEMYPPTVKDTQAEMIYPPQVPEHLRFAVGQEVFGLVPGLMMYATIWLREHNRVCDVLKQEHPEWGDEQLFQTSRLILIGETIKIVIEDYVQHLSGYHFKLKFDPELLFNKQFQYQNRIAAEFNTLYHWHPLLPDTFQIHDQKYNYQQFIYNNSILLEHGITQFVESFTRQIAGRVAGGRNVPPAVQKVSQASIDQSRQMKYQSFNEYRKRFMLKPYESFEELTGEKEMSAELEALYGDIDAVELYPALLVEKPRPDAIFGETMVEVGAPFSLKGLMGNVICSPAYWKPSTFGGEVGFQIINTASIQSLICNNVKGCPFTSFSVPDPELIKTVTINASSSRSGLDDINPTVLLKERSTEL

[9] = molecular target: T3, Prostaglandin G/H synthase 1; assay: Inhibition of COX1 in human whole blood assessed as effect on LPS-induced TXB2 level preincubated for 30 mins followed by LPS addition measured after 20 to 24 hrs by LC-MS analysis
[10] = molecular target: T3, Prostaglandin G/H synthase 1; assay: Inhibition of COX1 in human whole blood assessed as effect on LPS-induced PGF2alpha level up to 10 uM preincubated for 30 mins followed by LPS addition measured after 20 to 24 hrs by LC-MS analysis
[11] = Volume of distribution at steady state in dog at 1 mg/kg, iv; format: ADME, organism-based, Canis lupus familiaris; settings: in vivo, read-out: Vdss
[12] = test system: Rattus norvegicus; assay: Time at which plasma concentration stays above human whole blood IC80 level in rat at 5 mg/kg, po administered as single dose
[13] = test system: Canis familiaris; assay: Time at which plasma concentration stays above human whole blood IC80 level in dog at 3 mg/kg, po administered as single dose; design: species or system Canis lupus familiaris
[14] = molecular target: T3, Prostaglandin G/H synthase 1; assay: Inhibition of COX1 in human whole blood assessed as effect on LPS-induced TXB2 level up to 10 uM preincubated for 30 mins followed by LPS addition measured after 20 to 24 hrs by LC-MS analysis
[15] = molecular target: T4, Prostaglandin G/H synthase 2; assay: Inhibition of human COX2 assessed as reduction in PGF2alpha production at 10 uM using arachidonic acid as substrate by colorimetric method
[16] = Selectivity index, ratio of compound effect for inhibition of human mPGES1 expressed in HEK293 microsomes to compound effect for inhibition of ovine COX1
[17] = molecular target: T4, Prostaglandin G/H synthase 2; assay: Inhibition of COX2 in human A549 cells assessed as reduction in IL-1beta-induced PGI2 production up to 10 uM preincubated for 30 mins followed by IL-1beta addition measured after 18 hrs by enzyme immunoassay; format: cell-based; settings: a549, 18 h
[18] = Clearance in dog at 1 mg/kg, iv; format: ADME, organism-based, Canis lupus familiaris; settings: in vivo
[19] = Volume of distribution at steady state in rat at 1 mg/kg, iv; format: ADME, organism-based; settings: in vivo, read-out: Vdss
[20] = Oral bioavailability in dog at 3 mg/kg; settings: in vivo
[21] = Cmax in rat at 5 mg/kg, po; format: ADME, organism-based; design: dose 5 mg/kg, route oral; settings: in vivo
[22] = species on record: Homo sapiens; assay: Selectivity index, ratio of compound effect for inhibition of human mPGES1 expressed in HEK293 microsomes to compound effect for inhibition of human COX2
[23] = Oral bioavailability in rat at 5 mg/kg; format: ADME, organism-based; settings: in vivo
[24] = Cmax in dog at 5 mg/kg, po; format: ADME, organism-based, Canis lupus familiaris; design: dose 5 mg/kg, route oral; settings: in vivo
[25] = molecular target: T5, Prostaglandin G/H synthase 1 (Ovis aries, UniProt P05979); assay: Inhibition of ovine COX1 assessed as reduction in PGF2alpha production at 10 uM using arachidonic acid as substrate by colorimetric method; settings: sheep
T5 sequence (P05979 whole entry): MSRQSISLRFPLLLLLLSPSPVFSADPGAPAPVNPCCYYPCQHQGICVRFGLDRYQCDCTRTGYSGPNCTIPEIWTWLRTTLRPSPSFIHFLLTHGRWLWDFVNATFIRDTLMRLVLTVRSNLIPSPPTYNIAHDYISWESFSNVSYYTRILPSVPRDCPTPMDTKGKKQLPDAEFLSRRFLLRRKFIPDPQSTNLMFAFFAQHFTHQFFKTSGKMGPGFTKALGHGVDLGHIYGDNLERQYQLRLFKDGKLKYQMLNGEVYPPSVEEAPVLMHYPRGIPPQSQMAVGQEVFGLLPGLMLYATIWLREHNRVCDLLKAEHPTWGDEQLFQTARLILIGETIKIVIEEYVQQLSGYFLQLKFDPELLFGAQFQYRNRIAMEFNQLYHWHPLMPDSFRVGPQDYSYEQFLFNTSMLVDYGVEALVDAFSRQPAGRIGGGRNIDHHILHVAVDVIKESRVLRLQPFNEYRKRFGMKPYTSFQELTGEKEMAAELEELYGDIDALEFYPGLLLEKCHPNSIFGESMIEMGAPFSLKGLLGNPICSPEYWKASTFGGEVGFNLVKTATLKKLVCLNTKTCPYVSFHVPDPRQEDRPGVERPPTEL

[26] = molecular target: Voltage-gated inwardly rectifying potassium channel KCNH2 (Homo sapiens, UniProt Q12809); assay: Inhibition of human ERG expressed in CHO cells at 10 uM by automated patch clamp method; format: cell-based
Sequence of Voltage-gated inwardly rectifying potassium channel KCNH2 (Q12809 whole entry): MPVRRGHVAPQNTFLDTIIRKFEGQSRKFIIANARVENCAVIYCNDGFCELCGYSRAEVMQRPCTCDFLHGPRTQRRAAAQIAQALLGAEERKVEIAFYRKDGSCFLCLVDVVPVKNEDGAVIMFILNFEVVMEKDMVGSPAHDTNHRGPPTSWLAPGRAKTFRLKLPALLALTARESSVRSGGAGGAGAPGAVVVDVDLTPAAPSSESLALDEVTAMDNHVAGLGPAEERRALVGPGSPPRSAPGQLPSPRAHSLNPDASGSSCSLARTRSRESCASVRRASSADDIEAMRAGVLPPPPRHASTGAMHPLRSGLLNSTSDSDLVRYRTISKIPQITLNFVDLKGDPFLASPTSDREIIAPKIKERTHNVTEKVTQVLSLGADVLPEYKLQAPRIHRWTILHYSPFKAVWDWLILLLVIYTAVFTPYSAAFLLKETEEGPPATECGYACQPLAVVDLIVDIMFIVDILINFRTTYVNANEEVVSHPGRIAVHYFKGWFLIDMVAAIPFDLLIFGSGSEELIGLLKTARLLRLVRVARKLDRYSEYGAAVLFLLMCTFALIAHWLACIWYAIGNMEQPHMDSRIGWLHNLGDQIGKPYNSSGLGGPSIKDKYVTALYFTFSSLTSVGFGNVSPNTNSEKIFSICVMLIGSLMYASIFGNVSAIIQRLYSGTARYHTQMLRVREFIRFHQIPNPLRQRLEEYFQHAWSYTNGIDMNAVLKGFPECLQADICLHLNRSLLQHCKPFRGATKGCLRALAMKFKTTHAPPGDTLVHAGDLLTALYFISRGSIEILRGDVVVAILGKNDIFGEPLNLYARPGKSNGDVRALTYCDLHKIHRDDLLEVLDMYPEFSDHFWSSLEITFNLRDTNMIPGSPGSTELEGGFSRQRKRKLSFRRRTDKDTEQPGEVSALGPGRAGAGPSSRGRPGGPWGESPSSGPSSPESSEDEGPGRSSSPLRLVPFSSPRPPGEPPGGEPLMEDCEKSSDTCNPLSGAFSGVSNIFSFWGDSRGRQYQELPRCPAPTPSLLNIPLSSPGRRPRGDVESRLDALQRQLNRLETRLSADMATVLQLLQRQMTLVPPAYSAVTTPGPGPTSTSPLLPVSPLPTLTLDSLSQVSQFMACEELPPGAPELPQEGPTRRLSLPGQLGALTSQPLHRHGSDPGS

Sequence of CYP2C9 (P11712 whole entry): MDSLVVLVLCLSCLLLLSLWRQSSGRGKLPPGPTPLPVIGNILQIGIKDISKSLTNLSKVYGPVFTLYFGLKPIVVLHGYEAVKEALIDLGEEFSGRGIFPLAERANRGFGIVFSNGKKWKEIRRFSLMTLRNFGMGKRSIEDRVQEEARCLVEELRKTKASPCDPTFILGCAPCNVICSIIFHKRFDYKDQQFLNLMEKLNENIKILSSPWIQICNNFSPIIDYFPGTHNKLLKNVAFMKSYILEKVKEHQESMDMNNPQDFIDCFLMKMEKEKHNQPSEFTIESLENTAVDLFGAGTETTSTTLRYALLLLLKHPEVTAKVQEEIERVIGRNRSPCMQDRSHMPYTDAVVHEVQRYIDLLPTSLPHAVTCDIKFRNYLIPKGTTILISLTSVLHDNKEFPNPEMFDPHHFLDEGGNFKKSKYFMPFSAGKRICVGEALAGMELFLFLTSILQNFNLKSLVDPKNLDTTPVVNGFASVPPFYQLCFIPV
T3 sequence (P23219 whole entry): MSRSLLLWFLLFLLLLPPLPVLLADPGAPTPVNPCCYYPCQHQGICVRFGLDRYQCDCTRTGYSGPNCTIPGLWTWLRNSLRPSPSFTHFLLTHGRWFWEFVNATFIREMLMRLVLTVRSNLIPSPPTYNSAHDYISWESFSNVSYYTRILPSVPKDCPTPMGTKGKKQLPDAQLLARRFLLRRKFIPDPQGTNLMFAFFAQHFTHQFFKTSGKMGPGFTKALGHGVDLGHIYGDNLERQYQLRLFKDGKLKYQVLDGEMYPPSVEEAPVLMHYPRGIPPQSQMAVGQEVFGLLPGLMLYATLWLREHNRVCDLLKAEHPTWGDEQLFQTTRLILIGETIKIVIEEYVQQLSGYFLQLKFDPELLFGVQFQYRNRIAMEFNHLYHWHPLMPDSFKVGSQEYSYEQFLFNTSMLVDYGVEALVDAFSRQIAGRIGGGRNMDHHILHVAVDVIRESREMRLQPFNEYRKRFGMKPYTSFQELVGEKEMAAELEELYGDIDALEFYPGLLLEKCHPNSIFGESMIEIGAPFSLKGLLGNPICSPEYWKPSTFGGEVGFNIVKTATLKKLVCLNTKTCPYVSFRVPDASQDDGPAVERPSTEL

Compound	clearance [1] [mL/min/kg]	inhibition at 10 µM [2] [%]	IC80 [3] [nM]	IC50 [4] [nM]	IC50 [5] [nM]	further results
CC(C)(C)C(=O)N[C@H]1CCC[C@H]1CNc1cc(Cl)ccc1C(=O)O				8910	43	
O=C(O)c1ccccc1CC[C@@H]1CCC[C@@H]1NC(=O)C1CCN(c2ccc(OC(F)(F)F)cc2)CC1	17	32	43	10	1	
O=C(O)c1ccc(Cl)cc1NC[C@@H]1CCC[C@@H]1NC(=O)C1CCN(c2ccccc2)CC1	81	46	1370	81	2	IC50 [6]: 21 nM; inhibition (INH) [7]: Not Active; inhibition (INH) [8]: Not Active; inhibition (INH) [9]: Not Active
O=C(O)c1ccccc1CC[C@@H]1CCC[C@@H]1NC(=O)C1CCN(c2ccc(C(F)(F)F)cn2)CC1	6	22	267	34	2	
O=C(O)c1ccc(Cl)cc1NC[C@@H]1CCC[C@@H]1NC(=O)C1CCN(c2ccc(C(F)(F)F)cc2)CC1	40	71	8	3	4	IC50 [6]: 3.5 nM; inhibition (INH) [7]: Not Active; inhibition (INH) [8]: Not Active; inhibition (INH) [9]: Not Active
Cc1cccc2ccc(N3CCC(C(=O)N[C@H]4CCC[C@H]4CCc4ccccc4C(=O)O)CC3)nc12	31	14	24	6	1	inhibition (INH) [10]: Not Active; Vd [11]: 1.2 L/kg; Time [12]: >12 h; Time [13]: 24 h; inhibition (INH) [14]: Not Active; inhibition (INH) [15]: Not Active; Selectivity Index [16]: > 10000; inhibition (INH) [17]: Not Active; clearance [18]: 6.5 mL/min/kg; Vd [19]: 4.8 L/kg; bioavailability [20]: 68%; Cmax [21]: 530 nM; Selectivity Index [22]: > 10000; bioavailability [23]: 52%; Cmax [24]: 4 µM; inhibition (INH) [25]: Not Active; inhibition (INH) [26]: Not Active

The next lines start with results.

clearance [1] [mL/min/kg]	inhibition at 10 µM [2] [%]	IC80 [3] [nM]	IC50 [4] [nM]	IC50 [5] [nM]	Compound	further results
12	40	41	6	1	O=C(O)c1ccc(F)cc1CC[C@@H]1CCC[C@@H]1NC(=O)C1CCN(c2ccc(C(F)(F)F)cc2)CC1	
5	5	40	5	2	O=C(O)c1ccccc1CC[C@@H]1CCC[C@@H]1NC(=O)C1CCN(c2ccc(C(F)(F)F)cc2)CC1	
16	51	5	1	1	O=C(O)c1ccc(Cl)cc1CC[C@@H]1CCC[C@@H]1NC(=O)C1CCN(c2ccc(C(F)(F)F)cc2)CC1	
57	39	25	8	2	O=C(O)c1ccc(Cl)cc1OC[C@@H]1CCC[C@@H]1NC(=O)C1CCN(c2ccc(C(F)(F)F)cc2)CC1	
9	56	10	3	1	Cc1ccc(C(=O)O)c(CC[C@@H]2CCC[C@@H]2NC(=O)C2CCN(c3ccc(C(F)(F)F)cc3)CC2)c1	
38		146	21	6	O=C(O)c1cccnc1CC[C@@H]1CCC[C@@H]1NC(=O)C1CCN(c2ccc(C(F)(F)F)cc2)CC1	
